Calls of active or inactive are those of the source.
How the values were obtained:
[1] = cytotoxicity toward DRD oncogenic fibroblasts, dose response, cell-based, non-viral oncogenic, luminescence (AID 1934); assay type: functional; settings: Homo sapiens
Caspase-6 = target: T1, Caspase-6 (Homo sapiens, UniProt P55212); test: human caspase-6 inhibitors, dose response, biochemical, VEID-R110 fluorescence, cherry-pick (AID 720632)
T1 sequence (P55212 whole entry): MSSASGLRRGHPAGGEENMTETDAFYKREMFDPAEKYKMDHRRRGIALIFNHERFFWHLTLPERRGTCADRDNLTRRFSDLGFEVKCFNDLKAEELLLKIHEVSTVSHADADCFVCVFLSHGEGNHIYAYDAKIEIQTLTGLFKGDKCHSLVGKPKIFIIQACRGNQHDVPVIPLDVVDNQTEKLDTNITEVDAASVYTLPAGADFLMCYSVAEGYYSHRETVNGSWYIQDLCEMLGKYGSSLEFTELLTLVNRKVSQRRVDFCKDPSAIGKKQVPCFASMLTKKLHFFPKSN

Caspase-3 [2] = target: T2, Caspase-3 (Homo sapiens, UniProt P42574); test: caspase-3 enzyme inhibitors, selectivity check, dose response, selectivity assay for caspase-6 allosteric inhibitor project, biochemical, fluorescence, cherry-picked samples (AID 743291)
T2 sequence (P42574 whole entry): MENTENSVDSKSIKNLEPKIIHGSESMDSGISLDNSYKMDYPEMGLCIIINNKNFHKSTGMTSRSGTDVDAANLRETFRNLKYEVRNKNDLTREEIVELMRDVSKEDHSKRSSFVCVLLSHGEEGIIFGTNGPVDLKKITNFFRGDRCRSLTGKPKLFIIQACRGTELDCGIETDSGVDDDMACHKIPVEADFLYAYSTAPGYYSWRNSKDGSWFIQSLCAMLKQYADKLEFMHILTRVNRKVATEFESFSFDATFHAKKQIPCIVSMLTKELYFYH

[3] = target: RAC-gamma serine/threonine-protein kinase (Homo sapiens, UniProt Q9Y243); assay type: functional
Sequence of RAC-gamma serine/threonine-protein kinase (Q9Y243 whole entry): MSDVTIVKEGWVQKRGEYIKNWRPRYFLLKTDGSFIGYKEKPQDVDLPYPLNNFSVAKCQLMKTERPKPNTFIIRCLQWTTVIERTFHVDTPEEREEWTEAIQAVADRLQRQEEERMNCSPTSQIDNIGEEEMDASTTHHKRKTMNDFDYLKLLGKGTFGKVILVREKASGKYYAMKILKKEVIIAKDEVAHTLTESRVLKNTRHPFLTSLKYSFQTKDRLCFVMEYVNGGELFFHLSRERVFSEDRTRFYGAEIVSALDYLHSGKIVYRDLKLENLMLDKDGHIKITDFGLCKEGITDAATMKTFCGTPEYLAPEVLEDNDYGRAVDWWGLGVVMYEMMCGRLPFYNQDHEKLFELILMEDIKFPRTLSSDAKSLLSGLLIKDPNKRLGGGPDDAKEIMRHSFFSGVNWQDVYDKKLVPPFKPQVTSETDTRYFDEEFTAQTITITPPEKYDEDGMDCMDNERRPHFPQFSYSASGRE

[4] = target: Serine/threonine-protein kinase Chk2 (Homo sapiens, UniProt O96017); assay type: functional;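 note: CHEK2 entry within a kinome-wide screening panel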
Sequence of Serine/threonine-protein kinase Chk2 (O96017 whole entry): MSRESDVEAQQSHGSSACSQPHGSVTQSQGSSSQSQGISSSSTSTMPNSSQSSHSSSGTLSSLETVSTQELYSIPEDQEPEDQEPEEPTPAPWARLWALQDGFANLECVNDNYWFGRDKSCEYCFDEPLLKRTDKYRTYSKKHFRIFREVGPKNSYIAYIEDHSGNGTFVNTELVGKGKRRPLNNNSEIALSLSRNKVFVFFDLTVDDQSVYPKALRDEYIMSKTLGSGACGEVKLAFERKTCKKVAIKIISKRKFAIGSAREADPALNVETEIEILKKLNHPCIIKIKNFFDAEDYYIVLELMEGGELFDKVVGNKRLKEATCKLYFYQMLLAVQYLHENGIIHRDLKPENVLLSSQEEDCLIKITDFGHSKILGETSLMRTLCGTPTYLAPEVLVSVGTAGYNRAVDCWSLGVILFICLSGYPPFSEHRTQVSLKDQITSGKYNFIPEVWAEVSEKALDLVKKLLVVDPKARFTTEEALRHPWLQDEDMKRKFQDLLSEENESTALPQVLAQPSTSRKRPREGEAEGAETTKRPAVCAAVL

Aurora kinase A = target: T3, Aurora kinase A (Homo sapiens, UniProt O14965); assay type: functional;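 note: value from the Navigating the Kinome kinase panel profiling, panel entry STK6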
T3 sequence (O14965 whole entry): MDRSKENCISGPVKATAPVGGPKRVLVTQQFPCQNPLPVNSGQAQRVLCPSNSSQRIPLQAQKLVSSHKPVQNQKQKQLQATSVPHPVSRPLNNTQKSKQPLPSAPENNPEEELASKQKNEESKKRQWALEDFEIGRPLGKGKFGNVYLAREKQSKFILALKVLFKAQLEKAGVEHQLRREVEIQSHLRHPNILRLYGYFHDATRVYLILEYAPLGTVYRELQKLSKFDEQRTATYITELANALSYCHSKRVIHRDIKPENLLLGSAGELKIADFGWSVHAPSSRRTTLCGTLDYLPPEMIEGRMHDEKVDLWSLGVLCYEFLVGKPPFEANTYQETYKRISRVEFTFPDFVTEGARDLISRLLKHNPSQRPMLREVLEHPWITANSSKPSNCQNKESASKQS

[5] = target: Fibroblast growth factor receptor 1 (Homo sapiens, UniProt P11362); assay type: functional
Sequence of Fibroblast growth factor receptor 1 (P11362 whole entry): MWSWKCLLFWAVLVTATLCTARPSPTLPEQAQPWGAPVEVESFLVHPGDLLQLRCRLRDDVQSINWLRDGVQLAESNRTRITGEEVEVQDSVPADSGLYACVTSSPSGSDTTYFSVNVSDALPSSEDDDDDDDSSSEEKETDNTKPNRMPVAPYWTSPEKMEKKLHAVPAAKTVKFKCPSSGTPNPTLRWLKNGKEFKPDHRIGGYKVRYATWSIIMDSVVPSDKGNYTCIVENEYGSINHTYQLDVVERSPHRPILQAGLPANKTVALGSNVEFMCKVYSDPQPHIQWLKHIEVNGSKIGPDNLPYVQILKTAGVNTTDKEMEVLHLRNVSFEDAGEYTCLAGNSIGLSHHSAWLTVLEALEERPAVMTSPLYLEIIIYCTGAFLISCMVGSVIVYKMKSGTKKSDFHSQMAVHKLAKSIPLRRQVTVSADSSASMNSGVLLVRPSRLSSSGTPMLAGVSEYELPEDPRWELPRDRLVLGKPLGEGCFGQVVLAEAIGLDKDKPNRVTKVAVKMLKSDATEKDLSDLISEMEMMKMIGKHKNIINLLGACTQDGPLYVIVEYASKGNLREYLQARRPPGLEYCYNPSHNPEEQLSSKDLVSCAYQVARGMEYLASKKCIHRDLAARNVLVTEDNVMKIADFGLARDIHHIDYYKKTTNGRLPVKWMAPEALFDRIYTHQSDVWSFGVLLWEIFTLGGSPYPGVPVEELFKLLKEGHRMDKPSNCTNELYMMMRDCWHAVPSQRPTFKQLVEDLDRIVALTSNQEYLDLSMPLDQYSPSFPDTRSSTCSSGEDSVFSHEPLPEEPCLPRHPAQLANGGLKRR

[6] = target: Receptor-type tyrosine-protein kinase FLT3 (Homo sapiens, UniProt P36888); assay type: functional;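 note: FLT3 was tested as one member of a kinome-wide kinase panel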
Sequence of Receptor-type tyrosine-protein kinase FLT3 (P36888 whole entry): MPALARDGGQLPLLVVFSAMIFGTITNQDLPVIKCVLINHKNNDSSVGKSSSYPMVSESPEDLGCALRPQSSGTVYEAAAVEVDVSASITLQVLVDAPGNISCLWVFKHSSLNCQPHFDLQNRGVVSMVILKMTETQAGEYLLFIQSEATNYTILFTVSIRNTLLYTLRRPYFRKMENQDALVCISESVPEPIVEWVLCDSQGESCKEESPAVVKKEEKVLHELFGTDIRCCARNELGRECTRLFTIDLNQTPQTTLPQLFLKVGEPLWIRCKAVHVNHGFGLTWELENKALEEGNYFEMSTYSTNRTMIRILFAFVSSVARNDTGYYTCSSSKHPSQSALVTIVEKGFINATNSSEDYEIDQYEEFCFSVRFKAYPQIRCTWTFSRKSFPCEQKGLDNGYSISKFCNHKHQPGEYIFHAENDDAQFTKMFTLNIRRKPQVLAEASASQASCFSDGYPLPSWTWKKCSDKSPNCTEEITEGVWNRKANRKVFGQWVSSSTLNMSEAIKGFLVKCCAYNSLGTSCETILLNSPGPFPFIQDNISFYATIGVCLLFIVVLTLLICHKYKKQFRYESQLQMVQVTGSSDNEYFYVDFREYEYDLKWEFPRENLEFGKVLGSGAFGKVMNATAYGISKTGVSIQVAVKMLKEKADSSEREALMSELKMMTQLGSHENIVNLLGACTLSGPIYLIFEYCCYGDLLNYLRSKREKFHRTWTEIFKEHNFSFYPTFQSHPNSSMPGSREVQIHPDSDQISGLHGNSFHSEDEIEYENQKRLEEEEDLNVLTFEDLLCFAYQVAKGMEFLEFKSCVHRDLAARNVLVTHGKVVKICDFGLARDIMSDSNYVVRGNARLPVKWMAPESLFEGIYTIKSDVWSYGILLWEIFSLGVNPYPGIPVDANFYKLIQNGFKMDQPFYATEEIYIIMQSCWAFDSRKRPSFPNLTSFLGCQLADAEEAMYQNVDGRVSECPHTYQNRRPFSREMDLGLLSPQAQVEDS

[7] = target: RAC-alpha serine/threonine-protein kinase (Homo sapiens, UniProt P31749); assay type: functional;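 note: AKT1 affinity measured as one member of a kinome-wide kinase profiling panel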
Sequence of RAC-alpha serine/threonine-protein kinase (P31749 whole entry): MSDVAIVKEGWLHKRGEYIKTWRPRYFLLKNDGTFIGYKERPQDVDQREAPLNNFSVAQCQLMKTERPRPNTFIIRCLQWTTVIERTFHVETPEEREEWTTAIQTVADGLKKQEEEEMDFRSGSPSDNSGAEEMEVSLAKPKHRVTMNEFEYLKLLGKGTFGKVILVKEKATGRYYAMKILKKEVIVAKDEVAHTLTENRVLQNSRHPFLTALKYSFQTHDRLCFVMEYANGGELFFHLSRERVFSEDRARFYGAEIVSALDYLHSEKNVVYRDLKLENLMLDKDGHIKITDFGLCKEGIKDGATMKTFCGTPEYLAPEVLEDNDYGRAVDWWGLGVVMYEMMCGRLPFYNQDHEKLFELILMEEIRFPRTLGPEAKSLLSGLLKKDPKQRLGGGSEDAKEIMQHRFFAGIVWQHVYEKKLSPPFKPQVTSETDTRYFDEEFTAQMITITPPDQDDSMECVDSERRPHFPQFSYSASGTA

[8] = target: Rho-associated protein kinase 1 (Homo sapiens, UniProt Q13464); assay type: functional;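 note: measured within a broad kinome-wide panel profiling many kinases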
Sequence of Rho-associated protein kinase 1 (Q13464 whole entry): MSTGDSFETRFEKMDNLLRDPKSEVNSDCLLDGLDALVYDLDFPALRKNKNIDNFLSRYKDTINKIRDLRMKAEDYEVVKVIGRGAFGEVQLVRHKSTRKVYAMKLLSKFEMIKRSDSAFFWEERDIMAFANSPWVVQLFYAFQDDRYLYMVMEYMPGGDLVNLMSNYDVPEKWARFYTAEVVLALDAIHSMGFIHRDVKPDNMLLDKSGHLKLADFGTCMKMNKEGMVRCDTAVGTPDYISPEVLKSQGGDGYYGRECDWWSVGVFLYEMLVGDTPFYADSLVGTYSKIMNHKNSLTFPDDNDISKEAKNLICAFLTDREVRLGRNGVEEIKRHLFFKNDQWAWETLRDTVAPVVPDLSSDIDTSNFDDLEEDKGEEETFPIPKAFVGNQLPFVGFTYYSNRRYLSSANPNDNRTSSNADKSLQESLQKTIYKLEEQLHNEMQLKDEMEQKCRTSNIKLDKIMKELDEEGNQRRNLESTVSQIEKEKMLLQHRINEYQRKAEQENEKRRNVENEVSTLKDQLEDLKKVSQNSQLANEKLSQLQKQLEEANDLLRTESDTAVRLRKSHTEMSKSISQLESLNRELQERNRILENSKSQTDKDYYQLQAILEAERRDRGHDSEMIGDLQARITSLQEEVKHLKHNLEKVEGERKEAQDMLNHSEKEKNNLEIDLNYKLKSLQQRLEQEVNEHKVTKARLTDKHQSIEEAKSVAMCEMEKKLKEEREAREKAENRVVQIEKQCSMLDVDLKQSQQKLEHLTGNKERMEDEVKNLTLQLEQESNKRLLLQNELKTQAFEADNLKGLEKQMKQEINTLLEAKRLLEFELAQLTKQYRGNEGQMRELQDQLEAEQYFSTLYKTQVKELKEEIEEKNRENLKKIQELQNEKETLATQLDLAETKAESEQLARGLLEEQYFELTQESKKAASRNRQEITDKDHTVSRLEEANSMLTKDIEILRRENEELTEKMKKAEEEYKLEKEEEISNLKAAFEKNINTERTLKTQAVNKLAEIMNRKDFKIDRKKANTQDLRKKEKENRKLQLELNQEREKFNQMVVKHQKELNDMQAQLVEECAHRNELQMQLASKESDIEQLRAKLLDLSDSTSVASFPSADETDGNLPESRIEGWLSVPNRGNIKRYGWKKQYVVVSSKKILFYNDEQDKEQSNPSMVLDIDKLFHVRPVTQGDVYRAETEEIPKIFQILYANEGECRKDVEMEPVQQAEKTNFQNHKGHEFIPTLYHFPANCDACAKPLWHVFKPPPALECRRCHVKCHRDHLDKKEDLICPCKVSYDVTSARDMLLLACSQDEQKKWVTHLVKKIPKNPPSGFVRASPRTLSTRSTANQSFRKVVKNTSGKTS

[9] = target: STE20-like serine/threonine-protein kinase (Homo sapiens, UniProt Q9H2G2); assay type: functional
[10] = target: Macrophage colony-stimulating factor 1 receptor (Homo sapiens, UniProt P07333); assay type: functional;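 note: value comes from the Navigating the Kinome screening panel, CSF1R member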
HEK293 = test: HEK cell cytotoxicity by LDH release, dose response, cytotoxicity control for IDE activator project, fluorescence, HEK cells (AID 588440); assay type: functional, cell-based; settings: Homo sapiens;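 note: cytotoxicity by LDH release measuring loss of membrane integrity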
[11] = HepG2 cell cytotoxicity, dose response, cytotoxicity control for Shn3 inhibitor project, CellTiter-Glo, cherry-picked (AID 624134); assay type: functional, cell-based
[12] = control 3'UTR Renilla luciferase suppression, dose response, counter-screen for Shn3 inhibitor project, cell-based, Clone20-Shn3RL, cherry-picked (AID 624133); assay type: functional
Caspase-3 [13] = target: T2, Caspase-3; assay type: functional

O=[N+]([O-])c1c(Nc2ccccn2)cc(Cl)c2nonc12
EC50 [1]: 5.44 µM (inconclusive) | AC50 (Caspase-6): 1.06 µM (active) | AC50 (Caspase-3 [2]): 7.84 µM (active)

CC(C)(CO)CNc1nccc(-c2c(-c3ccc(F)cc3)nc3c(CC4CC4)nccn23)n1
Ki [3]: > 10 µM (inactive) | Ki [4]: > 5.01 µM (inactive) | Ki (Aurora kinase A): > 3.98 µM (inactive) | Ki [5]: > 5.01 µM (inactive) | Ki [6]: > 2.51 µM (inactive) | Ki [7]: > 7.94 µM (inactive) | Ki [8]: > 10 µM (inactive) | Ki [9]: > 10 µM (inactive) | Ki [10]: > 2.51 µM (inactive)

CC[C@@H](C)[C@H](CNC)NC[C@@H](Cc1cccc2ccccc12)NCCc1cccc(C(F)(F)F)c1
IC50 (HEK293): 8.67 µM (active) | AC50 [11]: 9.13 µM (active) | AC50 [12]: 3.28 µM (active)

Cc1ccc(C(=O)NC2(O)C(=O)c3ccccc3C2=O)cc1C
IC50 (Caspase-3 [13]): > 100 µM (inactive)

— ChEMBL document CHEMBL1201862, “PubChem BioAssay data set” (2004)
